Assay results as given in patent US20240041050A1, “CELL PENETRATING PEPTIDE MEDIATED RNA TRANSDUCTION WITHIN INSECT CELLS” (PIONEER HI-BRED INTERNATIONAL, INC., priority 2020, published 2024).
Peptide text beside a SMILES is read from it.

Assays:
Sf9 cells = test: CPP-mediated delivery of mCherry mRNA cargo into insect cells; type: cell-based, Spodoptera frugiperda; settings: complex of 75 μM unlabeled CPP and 10 μg mCherry mRNA, overnight
Source text: (§1) Sample preparation and analysis methods were based on those previously reported (Jafari et al. (201 4) “Serum stability and physicochemical characterization of a novel amphipathic peptide C6M 1 for siRNA delivery”, PLoS One, 9(5), e97797; and Gillet et al. (2017) “Investigating Engineered Ribonucleoprotein Particles to Improve Oral RNAi Delivery in Crop Insect Pests”, Frontiers in Physiology, 8(256), doi: 10.3389/fphys.2017.00256). Reagents are described in Examples 1 and 2. Nanocomplex samples were prepared in one of several ways, depending on type of CPP, RNA, or assay. […] Reaction volumes added to cells were 6.38 μL CPP and 6.38 μL mRNA. Final optimal CPP concentration was assessed by amount of fluorescent signal apparent within cells. For insect cell-based assays with CPP-YFP·Cy3-dsRNA or CPP·dsRNA, first a complex formation solution was prepared in molecular biology-grade water containing 90 mg·mL^−1 maltose, 9 mg·mL^−1 mannitol, 392. 16 mM CaCI2, pH 7.0, and vacuum-filtered using Corning™ Disposable Vacuum Filter and Storage System containing a cellulose nitrate filter. Then, increasing amounts of CPP-YFP were added to Cy3-dsRNA, from a molar ratio (CPP-YFP:Cy3-dsRNA) of 1:4 through 8:1 and incubated protected from light at 25° C. for 90 minutes prior to assessment via gel shift and DLS. Reaction volumes added per cell well were comprised of 17 μL reaction solution, 1 μL CPP, 1 μL dsRNA, and 1 μL molecular biology grade water; reaction sizes for larger total volumes were increased in increments of 20 μL and component ratio was held constant to maintain an ionic strength of […]. Final optimal molar ratio selected for cell experiments were determined by increase of the apparent size of the Cy3-dsRNA band on a native agarose gel (FIG. 2A and FIG. 2B), and/or appearance and increase in size of the complex peak detected by a Zetasizer Ultra (Malvern Panalytical, Malvern, United Kingdom) DLS instrument (FIG. 2C). […] Final optimal BAPC1 concentration was assessed by amount of fluorescent signal apparent within cells. […]

DU182A cells = test: as above; type: cell-based, Diabrotica undecimpunctata; settings: complex of 75 μM unlabeled CPP and 10 μg mCherry mRNA, overnight
Source text: as §1

## N=C(N)NCCC[C@H](NC(=O)[C@H](Cc1c[nH]c2ccccc12)NC(=O)[C@H](CCCNC(=N)N)NC(=O)[C@@H](N)CS)C(=O)N[C@@H](Cc1c[nH]c2ccccc12)C(=O)N[C@@H](CCCCN)C(=O)N[C@@H](CS)C(=O)N[C@@H](CS)C(=O)N[C@@H](CCCCN)C(=O)N[C@@H](CCCCN)C(=O)O [CyLoP-1, CRWRWKCCKK] (H-CRWRWKCCKK-OH; N-terminus and C-terminus assumed)
Sf9 cells
  fluorescent protein translated from delivered mCherry mRNA (fluorescent signal inside cells): Translation of mRNA into a functional fluorescent protein occurred
DU182A cells
  fluorescent protein translated from delivered mCherry mRNA (fluorescent signal inside cells): Translation of mRNA into a functional fluorescent protein occurred
